Laboratory results taken from publication PMC9408991, “Antitumor Effects of a New Retinoate of the Fungal Cytotoxin Illudin M in Brain Tumor Models” (International Journal of Molecular Sciences, 2022).

What was measured:
[1] = test system: retinoid-responsive elements (RARE); test: RA reporter assay, F9 RARE-lacZ reporter cells; assay type: cell-based; conditions: 10 nM; control 45
From the text: More typical of retinoic acid is its contribution to cell differentiation during vertebrate embryonic development by interacting with nuclear receptors, which bind to specific retinoid-responsive elements (RARE) within the promoters of subordinate genes, activating their transcription. To verify that retinoate 2 also binds to RARE, we used a reporter assay with F9 teratocarcinoma cells featuring a RARE located within the cis-acting regulatory sequences of the human retinoic acid receptor alpha gene and immediately upstream of the E. coli lacZ genes, which thus acquire retinoid responsivity. LacZ expression in cells treated with various concentrations of 2 was then quantitated by densitometric analysis of β-galactosidase activity visualized by X-Gal staining.
The F9 embryonal carcinoma cell line, stably transfected with the 1.8 kb promoter sequence of RARb2 coupled to the lacZ gene, was used to measure active retinoids. The assay is appropriate for detection of all-trans RA but is able to detect other retinoid isomers as well. The F9 reporter cells were maintained in 10% FCS containing DMEM in the presence of 400 ug/mL G418. A day before the assay, F9 cell were seeded onto 24-well plates (100,000 cell/well). The cells were than treated with various concentrations of 2. […]

[2] = test system: NE-4C neural stem cells; test: Neuronal differentiation of NE-4C neural stem cells (β-tubulin III staining); assay type: cell-based, mouse; conditions: 10 nM, β-tubulin III staining
Method: NE-4C cells and their differentiated progeny neurons can be immunohistochemically distinguished by the presence of β-tubulin III only in the latter (Figure 3).
Astroglia cells grown on poly-L-lysine-coated glass cover slips were fixed with 4% paraformaldehyde in PBS for 20 min at room temperature and then permeabilized with Triton X-100 (0.1% v/v in PBS; 5 min). Nonspecific antibodies were blocked by incubation with 3% FBS in PBS (room temperature, 1 h). α-GFAP antibody (rabbit, DAKO) was used in a dilution of 1:2000 and was visualized by anti-rabbit IgG Alexa 594 (1:1000). DAPI (4′,6-diamidino-2-phenylindole) was used for nuclei staining. Fluorescence images were captured manually on a Zeiss Axiovert 200 M microscope fitted with 20- to 60-fold zoom and a Zeiss AxioCam MRm digital camera. Further applied antibodies were tubulin III (Sigma T5076), used at a dilution of 1:1000, and Annexin V. Cy3.18 (Sigma A4963).

In the case of `CC1=C(/C=C/C(C)=C/C=C/C(C)=C/C(=O)O)C(C)(C)CCC1` [all-trans retinoic acid, reference compound], the “gray value (densitometric analysis of β-galactosidase activity)” value [1] is reported as 175 and the “differentiation of NE-4C stem cells to neurons” value [2] is reported as “differentiate to neurons”.
